Experimental data taken from patent publication US20260224549A1, “COMPOUNDS, COMPOSITIONS, AND METHODS FOR TREATING, AMELIORATING, AND/OR PREVENTING PAIN” (priority 2023, published 2026).
“Also recorded” adds a separate entry of the source. Where two headings read alike, the source gives them in different places.

Assays:
[1] = cited from earlier work
[2] = Thermal and storage stability of salts and forms; assay type: physicochemical; details: for stability at ambient conditions: storage
Text: On the basis of the DSC data, the acetate salt may be a hydrate.
The amorphous form may be obtained by crystallization from anhydrous solvents or by thermal desolvation of the hydrate. In certain embodiments, the preferred polymorph of Compound I diphosphate is Compound I diphosphate monohydrate (Form A): […]

[3] = Solubility in water of salts; assay type: physicochemical
[4] = Hygroscopicity - Dynamic Vapor Sorption (DVS); assay type: physicochemical
Protocol: Hygroscopicity—Dynamic Vapor Sorption (DVS)
DVS is a gravimetric technique that measures how quickly and how much of a solvent (water) is sorbed by a sample. The relative humidity or vapor concentration surrounding the sample is varied while the change in mass of the sample is measured. […] The mass values at each relative humidity step are used to generate an isotherm. Isotherms are divided in two components: sorption for increasing humidity steps and desorption for decreasing humidity steps. A plot of kinetic data is also used to show the change in mass and humidity as a function of time.
The samples were analyzed using a TA Q5000 automated dynamic vapor sorption analyzer. The samples were dried at 60° C. over 180 minutes and then cooled to 25° C. with a dry nitrogen purge. The samples were then subjected to 0 to 90% RH, back to 10% RH at 25° C. in 10% RH steps.

[5] = Static vapor sorption studies; assay type: physicochemical; details: for Est. H2O Content (%) / Wt % Change: ambient temperature, 3 weeks, Form A staged
Text: Static Vapor Sorption Studies
Static vapor sorption studies were done in hermetic humidity chambers using saturated salts, or environmental humidity chambers to control the temperature and humidity. Data collected during dynamic vapor sorption studies often are not at thermodynamic equilibrium. To gain a better understanding of the water uptake and the critical humidity level of the API, samples of the starting material (i.e., Form A) were monitored in static humidity chambers to allow the sample to equilibrate with atmospheric moisture.
In these studies, water vapor sorption was determined gravimetrically by storing samples in open aluminum dishes. Compound I diphosphate salt lot was used for this study. Samples were stored at 7 different humidity levels at ambient temperature (Table 19). Approximately 50 mg of Form A was staged at each humidity condition. The samples were weighed before placing them in the chamber and then re-weighed after 3 weeks. After re-weighing, the samples were immediately analyzed by XRD to determine whether a change in form had occurred.
The sample stored at 11% RH was an outlier and was therefore omitted from the final isotherm plot. The static isotherm plot is roughly consistent with the DVS isotherm plot (FIG. 12F) with a large moisture uptake at around 40% RH and a maximum uptake between 4 and 5 weight percent.

[6] = Metabolism in liver microsomes and hepatocytes in vitro; assay type: in vitro ADME
[7] = Phase I single ascending dose pharmacokinetics of metabolite Compound II in plasma; assay type: in vivo, human; details: for AUC(0-t): po; for Tmax: read-out: Tmax, Median
Text: The study comprised a single ascending dose (SAD), sequential cohort study, incorporating a food effect (FE) evaluation. Up to 40 subjects were to be studied in 5 cohorts (Cohorts A1 to A5), each cohort consisting of 8 subjects.
The actual blood sampling dates and times relative to dosing time were listed by subject and nominal sampling time, with time deviation calculated, for all subjects with available plasma concentration data.
For PK concentration data, the number of non-missing values, number of below limit of quantification (BLQ) values, arithmetic mean, standard deviation, median, minimum, maximum, coefficient of variation (CV %), geometric mean and geometric coefficient of variation (geo CV %) values was presented.
For PK parameter data, the number of non-missing values, arithmetic mean, standard deviation, median, minimum, and maximum values were presented.

[8] = human, metabolite after 200 mg DS (Fasted), single oral dose, plasma
[9] = human, metabolite after 400 mg DS (Fasted), single oral dose, plasma
[10] = metabolite after 60 mg DS (Fasted), single oral dose, plasma
[11] = metabolite after 120 mg DS (Fasted), single oral dose, plasma
[12] = metabolite after 200 mg DS (Fasted), single oral dose, plasma
[13] = metabolite after 400 mg DS (Fasted), single oral dose, plasma

SMILES: O=S(=O)(O)CCS(=O)(=O)O [1,2-Ethanedisulfonic acid]
- pKa ([1]; first value listed): −2.1
- pKa ([1]; second value listed): −1.5

SMILES: O=S(=O)(O)c1cccc2c(S(=O)(=O)O)cccc12 [1,5-Naphthalenedisulfonic acid]
- pKa ([1]; first value listed): −3.4
- pKa ([1]; second value listed): −2.6

SMILES: CC1(C)C2CCC1(CS(=O)(=O)O)C(=O)C2 (centres unmarked) [Camphorsulfonic acid]
- pKa ([1]; first value listed): 2.2

SMILES: CN(C)C[C@H]1CN(CCc2ccsc2)CC[C@]1(O)c1cccc(C(N)=O)c1 [Compound I diphosphate, 3-(3S,4R)-3-((dimethylamino)methyl)-4-hydroxy-1-(2-(thiophen-3-yl)ethyl)piperidin-4-yl-benzamide bisphosphate]
- stability (thermal, chemical) ([2]; in words, listed as diphosphate salt): more stable; also recorded: improved stability (thermally and chemically) over the other salts
- stability at ambient conditions ([2]; listed as diphosphate salt): stable to storage under ambient conditions
- aqueous solubility [3]: high aqueous solubility
- solubility in unbuffered water ([3]; unbuffered water): high solubility
- hygroscopicity ([4]; in words): moderately hygroscopic
- Est. H2O Content (%) ([5]; 11% relative humidity): 3.1%
- Wt % Change ([5]; 11% relative humidity): −0.2 Wt %
- Est. H2O Content (%) ([5]; 22% relative humidity): 0.8%
- Wt % Change ([5]; 22% relative humidity): −2.5 Wt %
- Est. H2O Content (%) ([5]; 33% relative humidity): 1.8%
- Wt % Change ([5]; 33% relative humidity): −1.5 Wt %
- Est. H2O Content (%) ([5]; 43% relative humidity): 3.9%
- Wt % Change ([5]; 43% relative humidity): +0.6 Wt %
- Est. H2O Content (%) ([5]; 75% relative humidity): 4.1%
- Wt % Change ([5]; 75% relative humidity): +0.8 Wt %
- Est. H2O Content (%) ([5]; 84% relative humidity): 4.4%
- Wt % Change ([5]; 84% relative humidity): +1.1 Wt %
- Est. H2O Content (%) ([5]; 97% relative humidity): 4.8%
- Wt % Change ([5]; 97% relative humidity): +1.5 Wt %

SMILES: CNC[C@H]1CN(CCc2ccsc2)CC[C@]1(O)c1cccc(C(N)=O)c1 [Compound II, 3-(3S, 4R)-3-((methylamino)methyl)-4-hydroxy-1-(2-(thiophen-3-yl)ethyl)piperidin-4-yl-benzamide]
- metabolite formation in vitro [6]: predominant metabolite of Compound I
- MRAUC0-t, metabolite ratio (MEB-373/MEB1170 AUC0-t values), Mean ([7]; 200 mg DS (Fasted), single oral dose, plasma): 0.0231
- MRAUC0-t, metabolite ratio (MEB-373/MEB1170 AUC0-t values), Mean ([7]; 400 mg DS (Fasted), single oral dose, plasma): 0.0276
- half-life ([7]; human, plasma, oral, 400 mg dose group (n=5), read-out: mean plasma t1/2 (converted)): 54.1 min
- half-life ([7]; human, plasma, oral, one individual at 200 mg, read-out: t1/2 (converted)): 120 min
- AUC(0-t) ([7]; human, plasma, 200 mg, metabolite after 200 mg DS (Fasted), single oral dose, plasma, read-out: AUC0-t (zero to the time of the last quantifiable concentration), Mean): 8.77 ng·h/mL
- AUC(0-t) ([7]; human, plasma, 400 mg, metabolite after 400 mg DS (Fasted), single oral dose, plasma, read-out: AUC0-last (zero to 24 hours postdose), Mean): 27.3 ng·h/mL
- AUC(0-t) ([7]; human, plasma, 400 mg, metabolite after 400 mg DS (Fasted), single oral dose, plasma, read-out: AUC0-t (zero to the time of the last quantifiable concentration), Mean): 21.1 ng·h/mL
- Cmax [7, 8]: 7.91 ng/mL
- Tmax [7, 8]: 2.26 h
- Cmax [7, 9]: 12.2 ng/mL
- AUC(0-inf) ([7]; human, metabolite after 400 mg DS (Fasted), single oral dose, plasma, read-out: AUC0-inf, Mean): 28.7 ng·h/mL
- Tmax [7, 9]: 2 h
- half-life ([7]; human, metabolite after 400 mg DS (Fasted), single oral dose, plasma, read-out: t1/2 (terminal plasma half-life), Mean (converted)): 54.1 min
- systemic exposures relative to Compound I ([7]; in vivo): very low relative to Compound I
- Tlast, Max [7, 10]: 2.50 h
- Tlast, Min [7, 10]: 2.50 h
- Tlast, Max [7, 11]: 4.00 h
- Tlast, Min [7, 11]: 2.50 h
- Tmax, Max [7, 11]: 2.50 h
- Tmax, Min [7, 11]: 2.50 h
- Tlast (time of last measurable concentration), Median [7, 12]: 3.25 h
- Tlast, Max [7, 12]: 4.00 h
- Tlast, Min [7, 12]: 2.50 h
- Tmax, Max [7, 12]: 2.50 h
- Tmax, Min [7, 12]: 1.00 h
- Tlast (time of last measurable concentration), Median [7, 13]: 4.00 h
- Tlast, Max [7, 13]: 4.00 h
- Tlast, Min [7, 13]: 2.50 h
- Tmax, Max [7, 13]: 2.50 h
- Tmax, Min [7, 13]: 1.50 h
- plasma concentrations ([7]; most subjects at doses of 20, 60, and 120 (fed) mg): below the limit of assay quantitation

SMILES: CCS(=O)(=O)O [Ethanesulfonic acid]
- pKa ([1]; first value listed): −2.1

SMILES: CN(C)C[C@H]1CN(CCc2ccsc2)CC[C@]1(O)c1cccc(C(N)=O)c1 [Form A]
- heating withstood by the hydrate [2]: ~ 70 °C
- stability at ambient conditions [2]: stable at ambient conditions
- maximum water/moisture uptake ([4]; at 90% RH): 4.15 wt %
- change of solid state form with humidity ([5]; XRD after storage at different humidity levels): did not change at any humidity level; also recorded: retains its structure in both low and high humidity environments
- relative humidity of large moisture uptake ([5]; static isotherm): around 40 % RH

SMILES: O=C(O)CNC(=O)c1ccccc1 [Hippuric acid]
- pKa ([1]; first value listed): 3.6

SMILES: O=S(=O)(O)c1ccc2ccccc2c1 [Naphthalene-2-sulfonic acid]
- pKa ([1]; first value listed): 0.2

SMILES: CCCCCCCCCCCCCCCCCC(=O)O [Stearic acid]
- pKa ([1]; first value listed): 4.9
